Molecules are shown by their SMILES. ± gives the expanded uncertainty stated by the source.

Refractive index and mass density data for 2 compounds are collected here from the NIST ThermoML archive (doi:10.1021/acs.jced.5b00805).

Data set [1] can be described thus: refractive index (Na D-line) (dimensionless); wn = mass fraction of the nth substance listed. As to conditions: 100 kPa, Liquid, Standard Abbe refractometry.
Data set [2] in a line: wn = mass fraction of the nth substance listed. As to conditions: 100 kPa, Liquid, Vibrating tube method.

Regarding `[Cl-].[Li+]` [lithium chloride] + O, the refractive index in data set [1] (288.15 K, w1 = 0.4413) is 1.4394 ± 0.0004; in data set [1] (308.15 K, w1 = 0.4664) it was 1.4365 ± 0.0004. In addition, the mass density in data set [2] (288.15 K, w1 = 0.4413) turned out to be 1287.19 ± 1.1 kg/m3; in data set [2] (308.15 K, w1 = 0.4664) it was 1301.11 ± 1.1 kg/m3.

Take `O=S(=O)([O-])[O-].[Li+].[Li+]` [lithium sulfate] + O: the refractive index in data set [1] (288.15 K, w1 = 0.2601) was found to be 1.3845 ± 0.0004; in data set [1] (308.15 K, w1 = 0.2537), 1.3738 ± 0.0004. Besides, the mass density in data set [2] (288.15 K, w1 = 0.2601) came out at 1236.43 ± 1 kg/m3; in data set [2] (308.15 K, w1 = 0.2537), 1226.22 ± 1 kg/m3.
